Calls of active or inactive are those of the source. The rule behind the calls is not given here. Starred links: 1 amine or outer side, 2 acyl side, 3 side chain; linkers in the order of their positions; H or OH if unused. Positions of bridges follow the written chain, without caps; N, C: chain ends. Non-standard residues stand in square brackets, D forms with d. Residues, ends and D or L forms follow the SMILES beside them. Chains are numbered I, II in the order given. Actinocin(9to1) = Cc1c2oc3c(C)ccc(C(=O)[*:1])c3nc-2c(C(=O)[*:2])c(N)c1=O; NMeV = CN[C@H](C(=O)O)C(C)C; Sar = CNCC(=O)O
Columns and labels:
A549 = experiment: Antiproliferative activity against human A549 cells assessed as cell growth inhibition incubated for 5 days by EZMTT assay; format: functional, cell-based; conditions: A549, 120 h
H22 [1] = experiment: Antiproliferative activity against mouse H22 cells assessed as cell growth inhibition incubated for 5 days by EZMTT assay; format: functional, cell-based; conditions: H22, 120 h
[2] = target: T1, Glutaminase kidney isoform, mitochondrial (Homo sapiens, UniProt O94925); experiment: Negative allosteric modulator activity at human wildtype KGA incubated for 5 hrs in presence of GDH and NADP by EZMTT assay
T1 sequence (O94925 whole entry): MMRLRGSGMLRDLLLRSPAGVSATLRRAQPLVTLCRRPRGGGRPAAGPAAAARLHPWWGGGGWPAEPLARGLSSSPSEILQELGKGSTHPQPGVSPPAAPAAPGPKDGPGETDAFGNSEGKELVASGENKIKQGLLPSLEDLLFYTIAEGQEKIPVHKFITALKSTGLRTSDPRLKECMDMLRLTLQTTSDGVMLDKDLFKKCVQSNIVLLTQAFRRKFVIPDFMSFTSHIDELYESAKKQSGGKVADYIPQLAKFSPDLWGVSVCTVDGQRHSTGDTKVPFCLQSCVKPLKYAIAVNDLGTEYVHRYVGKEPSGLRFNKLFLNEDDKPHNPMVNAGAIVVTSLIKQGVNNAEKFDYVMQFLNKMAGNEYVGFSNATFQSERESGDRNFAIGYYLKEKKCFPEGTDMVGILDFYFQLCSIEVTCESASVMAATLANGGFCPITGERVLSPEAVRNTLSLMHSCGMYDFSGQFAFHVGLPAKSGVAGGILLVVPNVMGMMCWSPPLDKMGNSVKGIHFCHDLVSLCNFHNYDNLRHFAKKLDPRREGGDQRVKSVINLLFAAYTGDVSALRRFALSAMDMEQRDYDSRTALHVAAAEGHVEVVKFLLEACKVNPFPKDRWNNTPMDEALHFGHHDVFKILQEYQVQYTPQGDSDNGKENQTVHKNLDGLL

[3] = Negative allosteric modulator activity at Escherichia coli GDH incubated for 1.5 hrs in presence of glutamate and NADP by EZMTT assay
Thioredoxin reductase = Thioredoxin reductase (Escherichia coli (strain K12), UniProt P0A9P4); experiment: Negative allosteric modulator activity at Escherichia coli TrxR using DTNB as substrate preincubated for 20 mins followed by substrate addition in presence of NADPH and measured after 60 mins
[4] = target: T1, Glutaminase kidney isoform, mitochondrial; experiment: Negative allosteric modulator activity at human wildtype KGA using glutamine as substrate preincubated for 1 hr followed by substrate addition in presence of GDH and NADP and measured after 4 hrs by EZMTT reagent based dilution assay
[5] = Negative allosteric modulator activity at human KGA K320A mutant using glutamine as substrate preincubated for 1 hr followed by substrate addition in presence of GDH and NADP and measured after 4 hrs by EZMTT reagent based dilution assay
[6] = Toxicity in ICR mouse xenografted with mouse H22 cells assessed as change in body weight at 30 mg/kg,SC for 10 consecutive days and measured after 32 days; format: organism-based; conditions: in vivo, 768 h, time 32 day
H22 [7] = experiment: Antitumor activity against mouse H22 cells xenografted in ICR mouse assessed as reduction in tumor size at 10 mg/kg,SC for 10 consecutive days; format: functional; parameters: scale not given: the % may be the effect or the level left
U-251 = experiment: Antiproliferative activity against human U-251 cells assessed as cell growth inhibition incubated for 5 days by EZMTT assay; format: functional, cell-based; conditions: U-251, 120 h
ACHN = experiment: Antiproliferative activity against human ACHN cells assessed as cell growth inhibition incubated for 5 days by EZMTT assay; format: functional, cell-based; conditions: 120 h
[8] = Toxicity in ICR mouse xenografted with mouse H22 cells assessed as body weight loss at 10 mg/kg,SC for 10 consecutive days; format: organism-based; conditions: in vivo
HGC-27 = experiment: Antiproliferative activity against human HGC-27 cells assessed as cell growth inhibition incubated for 5 days by EZMTT assay; format: functional, cell-based; conditions: HGC-27, 120 h
[9] = Toxicity in ICR mouse xenografted with mouse H22 cells assessed as change in body weight at 10 mg/kg,SC for 10 consecutive days and measured after 32 days; format: organism-based; conditions: in vivo, 768 h, time 32 day
H22 [10] = experiment: Antitumor activity against mouse H22 cells xenografted in ICR mouse assessed as increase in survival time at SC administration for 10 consecutive days and measured after 32 days; format: functional; conditions: time 32.0 day
HepG2 = experiment: Antiproliferative activity against human HepG2 cells assessed as cell growth inhibition incubated for 5 days by EZMTT assay; format: functional, cell-based; conditions: HepG2, 120 h
[11] = system: KATO III stomach cancer cell line; experiment: Antiproliferative activity against human KATO III stomach cancer cell line assessed as cell growth inhibition incubated for 5 days by EZMTT assay; format: functional, cell-based; conditions: 120 h
CAKI-1 = experiment: Antiproliferative activity against human CAKI-1 cells assessed as cell growth inhibition incubated for 5 days by EZMTT assay; format: functional, cell-based; conditions: CAKI-1, 120 h
[12] = target: T2, Glutaminase kidney isoform, mitochondrial (Homo sapiens) (UniProt O94925); experiment: Binding affinity to human biotinylated wildtype KGA at 0.01 to 1 uM by biolayer interferometry assay; conditions: filed as negative allosteric modulator, dose 0.01-1 µM
T2 sequence (whole entry): T1 sequence (O94925 whole entry)

[13] = Toxicity in ICR mouse xenografted with mouse H22 cells assessed as change in body weight at 1 to 10 mg/kg,SC for 10 consecutive days and measured after 32 days; format: organism-based; conditions: in vivo, 768 h, dose 1-10 mg/kg, time 32 day
Homo sapiens [14] = species: Homo sapiens; experiment: Binding affinity to human biotinylated KGA K320A mutant at 0.01 to 1 uM by biolayer interferometry assay; conditions: dose 0.01-1 µM
Homo sapiens [15] = species: Homo sapiens; experiment: Binding affinity to human biotinylated KGA K320A mutant at 1 to 10 uM by biolayer interferometry assay; conditions: dose 1-10 µM
H22 [16] = experiment: Antitumor activity against mouse H22 cells xenografted in ICR mouse assessed as increase in survival time at 10 mg/kg,SC administration for 10 consecutive days and measured after 32 days; format: functional, organism-based; conditions: time 32.0 day
[17] = Toxicity in ICR mouse xenografted with mouse H22 cells assessed as body weight loss at 0.25 mg/kg,SC for 10 consecutive days; format: organism-based; conditions: in vivo
H22 [18] = experiment: Antitumor activity against mouse H22 cells xenografted in ICR mouse assessed as tumor growth inhibition at 0.25 mg/kg,SC for 10 consecutive days; format: functional, organism-based

Thioredoxin reductase, sequence (P0A9P4 whole entry, canonical isoform): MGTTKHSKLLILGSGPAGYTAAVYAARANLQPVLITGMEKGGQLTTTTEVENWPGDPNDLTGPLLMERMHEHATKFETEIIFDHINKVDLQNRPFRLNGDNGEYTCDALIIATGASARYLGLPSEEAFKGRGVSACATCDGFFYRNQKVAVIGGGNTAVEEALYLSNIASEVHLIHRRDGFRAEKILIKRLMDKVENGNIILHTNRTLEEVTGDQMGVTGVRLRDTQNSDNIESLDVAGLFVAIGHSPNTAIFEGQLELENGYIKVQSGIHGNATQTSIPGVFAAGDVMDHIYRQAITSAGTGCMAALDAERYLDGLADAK

| Structure (SMILES) | IC50 (A549) | IC50 (H22 [1]) | IC50 [2] | IC50 [3] | IC50 (Thioredoxin reductase) | further results |
| --- | --- | --- | --- | --- | --- | --- |
| Nc1nnc(CC[Se][Se]CCc2nnc(N)[se]2)[se]1 | 8 µM | 2.6 µM | 3 µM | > 10 µM | 4 µM |  |
| Cc1nn(CCCCCCn2nc(C)c(Cl)c2C)c(C)c1Cl | > 10 µM | > 10 µM | > 10 µM | > 10 µM | > 10 µM |  |
| Nc1nnc(CCCCCCc2nnc(N)[se]2)[se]1 | > 10 µM | > 10 µM | > 10 µM | > 10 µM | > 10 µM |  |
| c1ccc(CC[Se][Se]CCc2ccccc2)cc1 | > 10 µM | 5.6 µM | > 10 µM | > 10 µM | 13 µM |  |
| Cc1nn(CCSSCCn2nc(C)c(Cl)c2C)c(C)c1Cl | > 10 µM | > 10 µM | > 10 µM | > 10 µM | > 10 µM |  |
| O=C1c2ccccc2C(=O)N1CC[Se][Se]CCN1C(=O)c2ccccc2C1=O | 1.6 µM | 0.83 µM | 0.4 µM | > 10 µM | 0.7 µM | IC50 [4]: 2.1 µM; IC50 [5]: > 10 µM; Activity [6]: Toxic; Activity (H22 [7]): ~70%; IC50 (U-251): 1.6 µM; IC50 (ACHN): 2.1 µM; Activity [8]: Non-Toxic; IC50 (HGC-27): 1.2 µM; Activity [9]: Toxic; Activity (H22 [10]): Dose-Dependent Effect; IC50 (HepG2): 1.9 µM; IC50 [11]: 1.65 µM; IC50 (CAKI-1): 3.3 µM |
| O=c1[nH]n(CC[Se][Se]CCn2[nH]c(=O)c3ccccc3c2=O)c(=O)c2ccccc12 | > 10 µM | > 10 µM | 1 µM | > 10 µM | 2.1 µM |  |
| Nc1nnc(CC[Se][Se]CCc2nnc(N)s2)s1 | 9 µM | 2.6 µM | 4 µM | > 10 µM | 3 µM |  |
| Cc1nn(CC[Se][Se]CCn2nc(C)c3ccccc32)c2ccccc12 | 0.75 µM | 3.5 µM | 0.2 µM | > 10 µM | 0.5 µM | IC50 [4]: 2.2 µM; Activity [12]: Active; IC50 [5]: > 10 µM; Activity [13]: Toxic; Activity (H22 [7]): ~70%; Activity [8]: Non-Toxic; Activity (Homo sapiens [14]): inactive; Activity (H22 [10]): Dose-Dependent Effect |
| CCCCCCCC[Se][Se]CCCCCCCC | > 10 µM | > 10 µM | > 10 µM | > 10 µM | > 10 µM |  |
| Cc1nn(CC[Se][Se]CCn2nc(C)c(Cl)c2C)c(C)c1Cl | 3 µM | 4 µM | 0.54 µM | > 10 µM | 0.7 µM |  |
| Cc1cc(C)n(CCSSCCn2nc(C)cc2C)n1 | > 10 µM | > 10 µM | > 10 µM | > 10 µM | > 10 µM |  |
| O=C1c2ccccc2C(=O)N1CCSSCCN1C(=O)c2ccccc2C1=O | > 10 µM | > 10 µM | > 10 µM | > 10 µM | > 10 µM |  |
| O=C(Cc1cccc(OC(F)(F)F)c1)Nc1ccc(CCCCc2nnc(NC(=O)Cc3ccccn3)s2)nn1 |  | > 10 µM |  | > 10 µM | > 10 µM | IC50 [5]: 0.3 µM; Activity (Homo sapiens [15]): inactive; Activity (H22 [16]): inactive |
| O=[N+]([O-])c1ccc2c(cnn2CC[Se][Se]CCn2ncc3cc([N+](=O)[O-])ccc32)c1 | 0.4 µM | 8 µM | 0.4 µM | > 10 µM | 0.7 µM |  |
| Cc1nn(CCC[Se]CCn2nc(C)c(Cl)c2C)c(C)c1Cl | > 10 µM | 8 µM | > 10 µM | > 10 µM | > 10 µM |  |
| Cc1cc(C)n(CC[Se][Se]CCn2nc(C)cc2C)n1 | 1.7 µM | 2.8 µM | 3.6 µM | > 10 µM | 3.7 µM |  |
| Cc1c2oc3c(C)ccc(C(=O)N[C@@H]4C(=O)N[C@H](C(C)C)C(=O)N5CCC[C@H]5C(=O)N(C)CC(=O)N(C)[C@@H](C(C)C)C(=O)O[C@@H]4C)c3nc-2c(C(=O)N[C@@H]2C(=O)N[C@H](C(C)C)C(=O)N3CCC[C@H]3C(=O)N(C)CC(=O)N(C)[C@@H](C(C)C)C(=O)O[C@@H]2C)c(N)c1=O [DACTINOMYCIN] (I: T[dV]P[Sar][NMeV] / II: T[dV]P[Sar][NMeV]; ester I:1-I:C, II:1-II:C; linker I:N-II:N via Actinocin(9to1)) |  |  |  |  |  | Activity [17]: Toxic; Activity (H22 [18]): Active |
| Nc1nnc(CCCCCCc2nnc(N)s2)s1 | > 10 µM | > 10 µM | > 10 µM | > 10 µM | > 10 µM |  |

Source: ChEMBL document CHEMBL5360603, “Diselenide Covalent Allosteric Inhibitors of Glutaminase with Strong In Vivo Anticancer Activity” (ACS Med Chem Lett, 2023)
